Test results published in patent US20030144269A1, “Reducing pulse pressures and vascular stiffness in hypertensive patients by administering a vasopeptidase inhibitor” (priority 2001, published 2003).

Assays:
[1] = tested on: patients with systolic or mixed systolic-diastolic hypertension; experiment: Double-blind 12-week comparison of omapatrilat and enalapril: trough pulsatile hemodynamics (cuff pressure, arterial tonometry, Doppler flow); format: in vivo, human; conditions: for Brachial pressures: Systolic pressure: trough (24 h after last dose), titrated to 80 mg omapatrilat or 40 mg enalapril; for Brachial pressures: Systolic pressure / PfPb Temporal overlap / Augmentation index / Brachial pressures: Diastolic pressure / Brachial pressures: Mean pressure / Brachial pressures: Pulse pressure / Carotid-femoral PWV / Carotid-radial PWV / Central hemodynamics: Heart rate / Central hemodynamics: Mean flow / Central hemodynamics: Peak flow / Central hemodynamics: Peripheral resistance (DSC) / Central hemodynamics: Pulse pressure / Central hemodynamics: Systolic pressure / Central stiffness parameters: Characteristic impedance (DSC) / Central stiffness parameters: First impedance modulus (DSC) / Central stiffness parameters: Proximal aortic compliance (CD) / End-systolic pressure / Forward wave, Pf / PbPf Amplitude ratio / Pressure at ti / Reflected wave arrival time, ti / Reflected wave, Pb / Systolic ejection period: mean ± SD; for PfPb Temporal overlap: % of systolic ejection period; for change in characteristic impedance / reduction in mean arterial pressure: change from baseline at 12 weeks; for change in characteristic impedance: only subjects with reduction in mean arterial pressure between 0 and −40 mmHg; for reduction in mean arterial pressure: only subjects with reduction in mean arterial pressure between 0 and −40 mmHg (68 omapatrilat, 59 enalapril); for changes in regional pulse wave velocities (carotid-femoral and carotid-radial) (FIG. 4): in vivo
Procedure: The following study was performed to compare treatment with the vasopeptidase inhibitor omapatrilat and the angiotensin converting enzyme inhibitor enalapril.
Study subjects. Male or female subjects age 18 years or older were eligible if they were in sinus rhythm and had systolic or mixed systolic-diastolic hypertension, defined as a seated systolic blood pressure ≧160 mmHg if newly diagnosed or ≧140 mmHg if currently treated and diastolic blood pressure ≦110 mmHG. Patients with known or suspected secondary forms of hypertension were excluded. Patients with a history of transient ischemic attacks within the prior 12 months or myocardial infarction or angina within the prior 6 months were excluded. All patients with heart failure, documented ejection fraction <45%, valvular heart disease or clinically significant peripheral vascular disease (bruit or diminished pulse in any of the brachial, radial, femoral or carotid arteries or blood pressure difference between upper extremities >6 mmHg) were excluded. Additional exclusion criteria included renal or renovascular disease, uncontrolled diabetes (glucose >200 mg/dl fasting or >220 mg/dL nonfasting), autoimmune disease, multiple drug allergies, bronchospastic disease requiring chronic medication. Laboratory exclusion criteria included hemoglobin <9 g/dl, platelet count <80,000/μl, white cell count <3000/μl, neutrophil count <1500/μl, serum potassium <3.5 or >5.2 mmol/L, alanine aminotransferase or aspartate aminotransferase greater than three times the upper limits of normal or serum creatinine >2.5 mg/dL. Failure to obtain a technically satisfactory baseline study, as determined by the core lab, was an exclusion criterion. If an initial baseline study had potentially remediable technical limitations, a repeat study was allowed within 2-9 days.
Treatment protocol: A single-blind placebo lead-in period of 1-2 weeks, during which the seated blood pressure was confirmed to be ≧160 mmHg and <200 mmHg and the diastolic pressure ≦110 mmHg, after withdrawl of antihypertensive medications, was followed by a double-blind active treatment period of 12 weeks. Baseline hemodynamic studies were performed at the end of the placebo lead-in period between 6:00 and 10:00 a.m. with the patient in a fasting state prior to taking morning medications and off all antihypertensive medications for at least 1 week. Patients were randomized within 2-9 days following an approved baseline study. Treatment was initiated with either 10 mg omapatrilat or 10 mg enalapril and was titrated at two and four weeks to doses of 40 then 80 mg omapatrilat or 20 then 40 mg enalapril. […] No concomitant antihypertensive medications were permitted during the study. A trough hemodynamic study, the primary endpoint of the trial was performed at the end of the active treatment period, 24 hours after the last prior dose of study medication, under identical conditions as the baseline study. Patients were then given one additional dose of study medication, which was followed 4 hours later by a final (peak) hemodynamic study. In order to focus on long-term effects of therapy, the primary endpoint of the study was prospectively defined as the trough change from baseline in pulsatile hemodynamics.
Hemodynamic data acquisition: Subjects were studied in the supine position after approximately 10 minutes of rest. Using a semi-automated computer-controlled device, auscultatory blood pressure was obtained 3-5 times at 2 minute intervals with a goal of obtaining 3 sequential readings that agreed to within 5 mmHg for systolic and diastolic. Arterial tonometry and ECG were obtained form the brachial, radial, femoral and carotid arteries using a custom transducer. Next, the patient was placed in the left lateral decubitus position and echocardiographic images of the left ventricular outflow tract were obtained from a parasternal long axis view. […]

[2] = tested on: patients who had left ventricular dysfunction and class II-IV congestive heart failure; conditions: cited from earlier work

Row | SMILES | shortening of the systolic ejection period ([1]; 12 weeks, trough) | Brachial pressures: Systolic pressure ([1]; 12 weeks) | PfPb Temporal overlap ([1]; 12 weeks, trough) | Augmentation index ([1]; 12 weeks, trough) | Brachial pressures: Diastolic pressure ([1]; 12 weeks, trough) | Brachial pressures: Mean pressure ([1]; 12 weeks, trough) | Brachial pressures: Pulse pressure ([1]; 12 weeks, trough) | Carotid-femoral PWV ([1]; 12 weeks, trough) | Carotid-radial PWV ([1]; 12 weeks, trough) | Central hemodynamics: Heart rate ([1]; 12 weeks, trough) | Central hemodynamics: Mean flow ([1]; 12 weeks, trough) | Central hemodynamics: Peak flow ([1]; 12 weeks, trough) | Central hemodynamics: Peripheral resistance (DSC) ([1]; 12 weeks, trough) | Central hemodynamics: Pulse pressure ([1]; 12 weeks, trough) | Central hemodynamics: Systolic pressure ([1]; 12 weeks, trough) | Central stiffness parameters: Characteristic impedance (DSC) ([1]; 12 weeks, trough) | Central stiffness parameters: First impedance modulus (DSC) ([1]; 12 weeks, trough) | Central stiffness parameters: Proximal aortic compliance (CD) ([1]; 12 weeks, trough) | End-systolic pressure ([1]; 12 weeks, trough) | Forward wave, Pf ([1]; 12 weeks, trough) | further results
1 | CCOC(=O)[C@H](CCc1ccccc1)N[C@@H](C)C(=O)N1CCC[C@H]1C(=O)O [Enalapril, reference compound] | shortening of the systolic ejection period | 155 ± 20 mmHg | 66 ± 8% | 21 ± 10 % | 81 ± 10 mmHg | 111 ± 12 mmHg | 74 ± 20 mmHg | 11.9 ± 3.7 m/s | 10.6 ± 1.8 m/s | 63 ± 8 min⁻¹ | 73 ± 16 mL/s | 314 ± 70 mL/s | 2122 ± 462 dyne × sec / cm^5 | 75 ± 23 mmHg | 156 ± 24 mmHg | 231 ± 94 dyne × sec / cm^5 | 352 ± 163 dyne × sec / cm^5 | 0.49 ± 0.28 10^−5 cm^4 / dyne | 120 ± 14 mmHg | 58 ± 17 mmHg | PbPf Amplitude ratio ([1]; 12 weeks, trough): 46 ± 8%; Pressure at ti ([1]; 12 weeks, trough): 139 ± 17 mmHg; Reflected wave arrival time, ti ([1]; 12 weeks, trough): 108 ± 25 ms; Reflected wave, Pb ([1]; 12 weeks, trough): 27 ± 8 mmHg; Systolic ejection period ([1]; 12 weeks, trough): 319 ± 27 ms; change in characteristic impedance [1]: −4±67 dyne×sec/cm^5; reduction in mean arterial pressure [1]: −12.0±8.1 mmHg; changes in regional pulse wave velocities (carotid-femoral and carotid-radial) (FIG. 4) [1]: reduced regional pulse wave velocity
2 | O=C(N[C@H]1CCS[C@H]2CCC[C@@H](C(=O)O)N2C1=O)[C@H](S)Cc1ccccc1 (relative stereo) [Omapatrilat, [4S-[4α(R*),7α,10aβ]]-octahydro-4-[(2-mercapto-1-oxo-3-phenylpropyl)amino]-5-oxo-7H-pyrido[2,1-b][1,3]thiazepine-7-carboxylic acid] | not seen | 147 ± 20 mmHg | 64 ± 12 % | 19 ± 13 % | 76 ± 11 mmHg | 105 ± 13 mmHg | 71 ± 18 mmHg | 11.4 ± 3.1 m/s | 10.1 ± 1.4 m/s | 64 ± 9 min⁻¹ | 73 ± 16 mL/s | 312 ± 68 mL/s | 1986 ± 449 dyne × sec / cm^5 | 71 ± 22 mmHg | 147 ± 24 mmHg | 208 ± 70 dyne × sec / cm^5 | 323 ± 119 dyne × sec / cm^5 | 0.53 ± 0.26^† 10^−5 cm^4 / dyne | 114 ± 16 mmHg | 54 ± 16 mmHg | PbPf Amplitude ratio ([1]; 12 weeks, trough): 47 ± 7%; Pressure at ti ([1]; 12 weeks, trough): 132 ± 20 mmHg; Reflected wave arrival time, ti ([1]; 12 weeks, trough): 116 ± 36 ms; Reflected wave, Pb ([1]; 12 weeks, trough): 25 ± 7 mmHg; Systolic ejection period ([1]; 12 weeks, trough): 320 ± 26 ms; peripheral resistance ([1]; 12 weeks, trough, versus enalapril): reduced more; amplitude of the forward pressure wave ([1]; 12 weeks, unchanged peak flow): markedly reduced; change in characteristic impedance adjusted for baseline mean arterial pressure and change in mean arterial pressure ([1]; 12 weeks, versus enalapril, P<0.05): remained significant; change in characteristic impedance [1]: −37±58 dyne×sec/cm^5; reduction in mean arterial pressure [1]: −13.8±7.4 mmHg; changes in central pulse pressure (FIG. 2) ([1]; compared to enalapril): greater reduction in the central pulse pressure compared to enalapril; change in peripheral (brachial) systolic, diastolic, and pulse pressure (FIG. 1) ([1]; compared to enalapril, p<0.05): greater reductions in all measurements; changes in regional pulse wave velocities (carotid-femoral and carotid-radial) (FIG. 4) [1]: reduced regional pulse wave velocity; arrival time of the reflected wave (FIG. 4) ([1]; p<0.05): delayed reflected wave arrival time; characteristic impedance, a direct measure of aortic stiffness (FIG. 3) ([1]; without a change in aortic flow): significantly reduced; carotid-femoral pulse wave velocity [2]: favorable trend toward reduction
